In paper PMC8907375, “Arylated analogues of cypronazole: fungicidal effect and activity on human fibroblasts. Docking analysis and molecular dynamics simulations” (Natural Products and Bioprospecting, 2022):
Converted amounts (≈) assume the structure as drawn. “And” between values parts separate entries of the source, which are not always exact repeats. Equal values may be shown once.

Tests used:
[1] = test system: B. cinerea (isolated from grapes); experiment: In vitro antifungal activity, broth microdilution (MIC100); type: cell-based, Botrytis cinerea; settings: B. cinerea
Experimental: (§1) Fungal growth was assessed at six concentrations (3.1–100 μg/mL), using enriched Czapek broth in the presence of triazole 1-8 (Fig. 2). Each treatment was carried out in triplicate. The Minimum Inhibitory Concentration (MIC100) was determined and was defined as the minimum concentration required to inhibit the complete fungal growth inhibition under the conditions of the assay. Triadimefon (TDM) and cyproconazole (CPZ) were used as positive control. In order to evaluate the efficacy of the new compounds to control fungi affecting vineyards, imperfect fungi isolated from infected grapes from the province of San Juan in Argentina were employed. Significant differences were determined by t-Student hypothesis test p, at 95% confidence. In general, moderate to good activity was observed compared to the reference compounds as well as some selectivity against microorganisms.
(§2) The imperfect fungi used for the assays included Botrytis cinerea isolated from grapevine samples, Aspergillus fumigatus (ATTC 26934), A. niger (ATCC 9029), A. ustus (PN-S4), A. japonicus (M15C), A. terreus (M16C) and Fusarium oxysporum (M15-Pa) isolated from soil samples from the province of San Juan, Argentina. The microorganisms were grown on Czapek-yeast extract agar (CYA) prepared with yeast extract, K2HPO4, saccharose, agar, distilled water and enriched with a solution of mineral salts (NaNO3, KCl, MgSO4.7H2O and FeSO4.7 H2O). Inocula were adjusted to 1–5 × 10^4 colony forming units (CFU/ mL).
(§3) The minimum inhibitory concentration (MIC) of each compound was evaluated using broth microdilution techniques in 96-well microtiter plates according to the guidelines of the National Committee for Clinical Laboratory Standards for filamentous fungi M 38 A. The starting inoculum was 1–5 × 10^4 CFU/mL in accordance with the Clinical and Laboratory Standards Institute (CLSI, formerly the National Committee for Clinical Laboratory Standards [NCCLS]) (M27-A3 document for yeasts, and M38-A2 document for filamentous fungi).
(§4) Microtiter plates were incubated at 30 °C for Aspergillus and Fusarium, and 22 °C for B. cinerea in a moist and dark chamber. MIC values were recorded after 48 h for Aspergillus and Fusarium spp., and after 72 h for B. cinerea, according to the fungal growth control. TDM and CPZ were used as positive controls (12.5–50 μg/mL). Stock solutions were two-fold diluted with RPMI from 1000 to 0.98 μg/mL (final volume equal to 100 μL), and a final DMSO concentration ≤ 1%. An inoculum suspension (100 μL) was added to each well with the exception of the sterility control. Endpoints were defined as the lowest compound concentration resulting in total growth inhibition (MIC100) compared to the growth in control wells. MICs values ≤ 50 μg/mL were considered of interest. The assay was carried out in triplicate.

[2] = test system: Aspergillus fumigatus (ATTC 26934); experiment: as above; type: cell-based; settings: A. fumigatus, 30 °C, 48 h, total growth inhibition
Experimental: as §1, §2, §3, §4

[3] = test system: Fusarium oxysporum (M15-Pa); experiment: as above; type: cell-based; settings: 30 °C, 48 h, total growth inhibition
Experimental: as §1, §2, §3, §4

A. japonicus (M15C) = experiment: as above; type: cell-based, Aspergillus japonicus; settings: 48 h; for Fungicidal activity MIC100, AJ: A. japonicus, 30 °C, total growth inhibition
Experimental: as §1, §2, §3, §4

A. niger (ATCC 9029) = experiment: as above; type: cell-based, Aspergillus niger; settings: 48 h, total growth inhibition; for Fungicidal activity MIC100, AN: 30 °C
Experimental: as §1, §2, §3, §4

A. terreus (M16C) = experiment: as above; type: cell-based, Aspergillus terreus; settings: 48 h; for Fungicidal activity MIC100, AT: A. terreus, 30 °C, total growth inhibition
Experimental: as §1, §2, §3, §4

A. ustus (PN-S4) = experiment: as above; type: cell-based, Aspergillus ustus; settings: 30 °C, 48 h, total growth inhibition
Experimental: as §1, §2, §3, §4

[4] = test system: human lung fibroblasts MRC-5; experiment: Cytotoxicity, neutral red uptake assay; type: cell-based; settings: MRC-5 fibroblasts, 24 h exposure, neutral red uptake; ± SD; read-out: Cytotoxicity IC50
Experimental: (§5) The cytotoxic effect of the compounds, expressed as cell viability, was assessed on a permanent fibroblast cell line derived from human lung (MRC-5) (ATCC CCL-171). MRC-5 fibroblasts were grown as monolayers in minimum essential Eagle medium (MEM) with Earle’s salts, 2 mM l-glutamine and 2.2 g/L sodium bicarbonate, supplemented with 10% heat inactivated fetal bovine serum (FBS), 100 IU/mL penicillin and 100 µg/mL streptomycin in a humidified incubator with 5% CO2 in the air at 37 °C. Cell passage was maintained between 10 and 16. The medium was changed every 2 days.
(§6) Confluent cultures of MRC-5 fibroblasts were treated with medium containing the compounds at concentrations ranging from 0 to 1000 µM. For comparison purposes, the commercial antifungals CPZ and TDM were used as references, the products were first dissolved in DMSO and then in MEM, supplemented with 2% FBS. The final content of DMSO in the test medium and controls was 1%. Cells were exposed for 24 h to the test medium with or without the compound (control). Each concentration was tested in quadruplicate together with the control, and repeated three times in separate experiments. At the end of the incubation, the neutral red uptake (NRU) assay was carried out. To calculate the IC50 values (concentration that produces a 50% inhibitory effect on the evaluated parameter), the results were transformed to percentage of controls and the IC50 values were graphically obtained from the dose–response curves.

B. cinerea = experiment: In vivo antifungal activity on infected grapes under greenhouse conditions; design: species or system Botrytis cinerea on Vitis vinifera grapes; settings: 7 days; for Efficacy (preventive rate) against B. cinerea on grapes: 2.5 µg/mL; for Efficacy (control effectiveness) against B. cinerea on grapes: 12.5 μg/mL
Experimental: The potential usefulness of compound 4 against B. cinerea was assessed under greenhouse conditions using infected grapes (in vivo), at 7 days of exposure. The compound was evaluated at 2.5 μg/mL and 12.5 μg/mL, CPZ was used as positive control (at 12.5 μg/mL). […] The blank control (untreated grapes) was completely affected by B cinerea (100% incidence) (Fig. 4).
The in vivo activity was determined on the Vitis vinifera grapes inoculated with a Botrytis cinerea conidia suspension. Appropriate amounts of the tested compounds were dissolved in DMSO and then suspended in the distilled water (DMSO concentration < 2%).
Healthy grapes, previously washed with a diluted solution of sodium hypochlorite, were punctured with 100 ⎧L of a solution of compound 4 (concentration of 12.5 ⎧g/mL and 2.5 ⎧g/mL) and evaporated at room temperature (~ 25 °C) during 24 h to favour the penetration of the compound. The same procedure was carried out with CPZ and the control blank (< 2% DMSO solution). The grapes epidermis was punctured with a sterile inoculation needle (Ø, 4.5 mm), 200 µL of the pathogen was inoculated at a concentration of 5.10^4 UFC/mL. The fruits were incubated at 20 °C to favour fungal growth, and fungal growth was assessed 7 days later. CPZ was used as positive control under the same conditions. The control effectiveness of the target compound was calculated as (1 − c/d) × 100, where c is the diameter of the treatment and d is the diameter of the blank control (˂ 2% DMSO solution).

[5] = Cytotoxicity, neutral red uptake assay; type: cell-based, human; settings: human
Experimental: as §5, §6

B. cinerea hyphae = experiment: Effect on B. cinerea hyphal morphology (optical microscopy); type: cell-based, Botrytis cinerea; settings: 12.5 μg/mL
Experimental: Changes in the hyphae morphology of B. cinerea treated with compound 4 were observed using optical microscopy.
The same procedure was carried out with CPZ and blank control (< 2% DMSO solution).

[6] = 22 °C, 72 h, total growth inhibition

Molecule	Fungicidal activity MIC100, BC [1, 6] [µg/mL]	Fungicidal activity MIC100, AF [2]	Fungicidal activity MIC100, F [3] [µg/mL]	Fungicidal activity MIC100, AJ (A. japonicus (M15C)) [µg/mL]	Fungicidal activity MIC100, AN (A. niger (ATCC 9029)) [µg/mL]	Fungicidal activity MIC100, AT (A. terreus (M16C))	Fungicidal activity MIC100, AU (A. ustus (PN-S4)) [µg/mL]	IC50 [4] [µM]	Efficacy (preventive rate) against B. cinerea on grapes (B. cinerea) [%]	Efficacy (control effectiveness) against B. cinerea on grapes (B. cinerea) [%]	MIC100 (complete growth inhibition) ([1]; Botrytis cinerea, 22 °C, 72 h, total growth inhibition, read-out: Fungicidal activity MIC100, BC) [µg/mL]	MIC ([1]; Botrytis cinerea, molar conversion of the µg/mL value, read-out: MIC100 against B. cinerea expressed) [µM]	Minimum inhibitory concentration (MIC100) ([2]; Aspergillus fumigatus, read-out: Fungicidal activity MIC100, AF) [µg/mL]	MIC100 (minimum concentration for complete growth inhibition) ([3]; Fusarium oxysporum, F. oxysporum, read-out: Fungicidal activity MIC100, F) [µg/mL]	MIC (A. japonicus (M15C); read-out: Fungicidal activity MIC100, AJ) [µg/mL]	MIC100 (complete growth inhibition) (A. niger (ATCC 9029); Aspergillus niger, ATCC9029, 30 °C, read-out: Fungicidal activity MIC100, AN) [µg/mL]	MIC100 (complete growth inhibition) (A. terreus (M16C); Aspergillus terreus, read-out: Fungicidal activity MIC100, AT, A. terreus, 30 °C, total growth inhibition) [µg/mL]	MIC100 (complete growth inhibition) (A. ustus (PN-S4); Aspergillus ustus, read-out: Fungicidal activity MIC100, AU) [µg/mL]	IC50 at 24 h [5] [µM]	Hyphal morphology of B. cinerea (B. cinerea hyphae)
1-(4-chlorophenyl)-3-cyclopropyl-2-(1H-1,2,4-triazol-1-yl)butan-1-ol [CPZ, reference compound]	12.5 ± 0.8	25 µg/mL and 25 ± 1.4 µg/mL	≥ 100	25 ± 1.3	25 ± 1.5	15.0 µg/mL and 15 ± 0.9 µg/mL	15 ± 0.7	267 ± 18.7	38.3	75.3	–	–	–	–	–	–	–	–	–	–
CC(C1CC1)C(O)(Cn1cncn1)c1ccc(-c2ccc(F)cc2)cc1 (stereo not shown) [Compound 4, 3-Cyclopropyl-2-(4’-fluorobiphenyl-4-yl)-1-(1H-1,2,4-triazol1-yl)butan-2-ol]	12.5 ± 0.9	12.5 ± 0.8 µg/mL	–	15 ± 0.7	10 ± 0.5	10 ± 0.4 µg/mL	14 ± 0.7	–	50.6	100	12.5 (≈ 35.6 µM)	35.5 (≈ 12.5 µg/mL)	12.5 (≈ 35.6 µM)	≥ 100	15 (≈ 42.7 µM)	10 (≈ 28.5 µM)	10 (≈ 28.5 µM)	14 (≈ 39.8 µM)	61.1 ± 3.7	morphological alterations, including irregular hyphae, variable diameter and the presence of internal vacuoles
